One molecule from patent publication US20060198889A1, “Roflumilast and integrin inhibitor combination and treatement method” (priority 2005, published 2006) can be followed below.

Experiment [1] deals with mild/moderate asthmatics not treated with inhaled corticosteroids. In words: ARES study: R411 monotherapy, 12 week treatment period. The format is in vivo, human. To be noted: for Asthma control Questionnaire (Total Score), change from baseline / Morning asthma symptoms, change from baseline / Rescue β2-agonist use (puffs/d), change from baseline: ITT population. How it is done:
The ARES study illustrated in FIG. 3 was designed to evaluate the safety and efficacy of monotherapy R411 over a 12 week treatment period in 480 mild/moderate asthmatics not treated with inhaled corticosteroids. Patients were randomized to one of four cohorts: 50, 200, 600 mg QD R411, or placebo (n=120/group). The primary endpoint in the study was change in FEV1 from baseline, and secondary endpoints included PEFR, asthma exacerbations, β2-agonist use, asthma control questionnaire, asthma symptom scores, and nocturnal awakenings. Small airway inflammation represents a clinically significant component of moderate to severe asthma that is not adequately controlled by currently available inhaled corticosteroids therapies.
ARES study evaluated the safety and efficacy of monotherapy with R411 over a 12-week treatment period in 479 mild/moderate asthmatics not treated with inhaled corticosteroids. Patients were randomized to one of four cohorts: 50, 200, 600 mg once daily R411, or placebo.

Experiment [2] deals with airway inflammation in the atopic primate. Briefly: Airway inflammation in the atopic primate, oral R411 (FIG. 4). It counts as in vivo. As to conditions: oral administration, atopic primate (FIG. 4).
In the next experiment the target is α4/β1 integrin (Homo sapiens, UniProt P05556+P13612). In words: Inhibition of α4/β1 binding to VCAM-1.
For a further experiment, the target named is T1, α4/β7 integrin (Homo sapiens, UniProt P13612+P26010).
T1 sequence (P13612 34-1032): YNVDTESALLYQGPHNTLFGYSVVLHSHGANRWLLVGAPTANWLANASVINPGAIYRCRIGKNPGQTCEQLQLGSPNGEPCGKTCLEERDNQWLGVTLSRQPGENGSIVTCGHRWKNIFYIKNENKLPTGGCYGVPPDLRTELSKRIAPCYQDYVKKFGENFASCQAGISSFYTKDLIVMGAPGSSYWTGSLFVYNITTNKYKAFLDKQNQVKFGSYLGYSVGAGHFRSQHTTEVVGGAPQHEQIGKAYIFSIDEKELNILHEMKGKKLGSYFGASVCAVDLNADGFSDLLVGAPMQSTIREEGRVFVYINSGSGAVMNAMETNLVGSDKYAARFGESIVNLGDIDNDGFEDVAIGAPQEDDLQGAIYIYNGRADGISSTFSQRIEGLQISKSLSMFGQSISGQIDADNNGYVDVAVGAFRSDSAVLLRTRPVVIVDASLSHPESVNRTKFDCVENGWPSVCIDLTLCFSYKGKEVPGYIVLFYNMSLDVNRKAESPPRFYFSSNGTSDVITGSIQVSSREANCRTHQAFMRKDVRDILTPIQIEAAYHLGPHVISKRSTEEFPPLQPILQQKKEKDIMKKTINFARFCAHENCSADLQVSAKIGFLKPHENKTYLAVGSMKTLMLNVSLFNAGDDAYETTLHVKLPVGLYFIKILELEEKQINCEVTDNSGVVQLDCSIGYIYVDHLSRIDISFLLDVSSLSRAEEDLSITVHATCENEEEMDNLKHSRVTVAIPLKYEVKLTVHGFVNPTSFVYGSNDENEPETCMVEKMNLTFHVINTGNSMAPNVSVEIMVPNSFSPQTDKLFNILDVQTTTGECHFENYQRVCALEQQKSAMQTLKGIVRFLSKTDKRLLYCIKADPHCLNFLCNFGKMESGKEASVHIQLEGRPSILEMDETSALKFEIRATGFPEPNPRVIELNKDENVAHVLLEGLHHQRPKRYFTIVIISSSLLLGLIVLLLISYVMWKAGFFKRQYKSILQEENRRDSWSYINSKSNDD
T1 sequence (P26010 20-798): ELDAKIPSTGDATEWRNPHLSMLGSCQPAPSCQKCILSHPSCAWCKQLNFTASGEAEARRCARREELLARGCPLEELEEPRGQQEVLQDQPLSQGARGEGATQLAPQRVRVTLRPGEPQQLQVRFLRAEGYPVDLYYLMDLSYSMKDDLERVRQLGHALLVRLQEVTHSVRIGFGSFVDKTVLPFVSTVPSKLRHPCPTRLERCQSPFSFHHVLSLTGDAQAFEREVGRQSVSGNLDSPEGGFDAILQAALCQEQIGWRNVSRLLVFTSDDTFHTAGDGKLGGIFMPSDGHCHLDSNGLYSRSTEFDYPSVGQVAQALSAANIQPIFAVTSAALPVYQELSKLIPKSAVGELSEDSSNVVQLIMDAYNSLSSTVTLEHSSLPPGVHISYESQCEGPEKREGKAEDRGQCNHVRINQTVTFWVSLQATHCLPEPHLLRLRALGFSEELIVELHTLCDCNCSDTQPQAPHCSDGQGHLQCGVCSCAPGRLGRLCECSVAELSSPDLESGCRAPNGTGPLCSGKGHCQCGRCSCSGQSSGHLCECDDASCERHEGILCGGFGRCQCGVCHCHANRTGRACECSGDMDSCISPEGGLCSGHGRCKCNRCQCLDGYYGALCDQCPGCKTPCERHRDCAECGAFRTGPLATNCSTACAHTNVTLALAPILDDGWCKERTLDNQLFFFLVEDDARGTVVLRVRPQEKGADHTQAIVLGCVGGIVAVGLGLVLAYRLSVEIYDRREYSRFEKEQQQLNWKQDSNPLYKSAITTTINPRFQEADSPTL
Briefly: Inhibition of α4/β7 binding to MadCAM-1.

Setting [3] is: 12-week monotherapy, versus placebo.

Chain of α4/β1 integrin (P05556 21-798, one chain of several): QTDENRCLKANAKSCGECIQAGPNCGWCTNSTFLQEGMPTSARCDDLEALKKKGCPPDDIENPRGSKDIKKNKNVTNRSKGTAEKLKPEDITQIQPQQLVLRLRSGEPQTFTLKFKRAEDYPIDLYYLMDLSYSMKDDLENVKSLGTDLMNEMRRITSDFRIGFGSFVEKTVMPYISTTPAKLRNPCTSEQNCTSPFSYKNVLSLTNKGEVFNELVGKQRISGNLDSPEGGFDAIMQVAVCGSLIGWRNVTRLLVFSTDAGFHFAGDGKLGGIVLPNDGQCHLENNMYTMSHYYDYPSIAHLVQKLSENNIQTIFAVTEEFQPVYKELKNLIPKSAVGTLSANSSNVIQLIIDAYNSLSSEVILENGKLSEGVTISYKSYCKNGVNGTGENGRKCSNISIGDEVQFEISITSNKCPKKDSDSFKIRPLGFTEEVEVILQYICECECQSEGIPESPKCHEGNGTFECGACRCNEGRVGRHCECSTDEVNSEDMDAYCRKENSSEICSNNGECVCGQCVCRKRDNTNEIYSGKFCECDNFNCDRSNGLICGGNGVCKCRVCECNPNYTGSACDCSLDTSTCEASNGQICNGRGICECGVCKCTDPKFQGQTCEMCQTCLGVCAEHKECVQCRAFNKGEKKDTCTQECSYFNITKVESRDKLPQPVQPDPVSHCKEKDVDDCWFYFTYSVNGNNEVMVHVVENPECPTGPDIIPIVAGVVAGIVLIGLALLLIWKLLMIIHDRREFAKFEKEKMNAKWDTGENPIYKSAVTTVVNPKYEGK

With `CCN(CC)CCOC(=O)[C@H](Cc1ccc(NC(=O)c2c(Cl)cccc2Cl)cc1)NC(=O)c1c(C)cccc1Cl` [R411, N-(2-Chloro-6-methylbenzoyl)-4-[(2,6-dichlorobenzoyl)amino]-L-phenylalanine-2-(diethylamino)ethyl ester], in experiment [1] (setting [3]), the “decrease in daytime asthma symptom score” value is listed as “Statistically significant improvements” and the “decrease in nocturnal symptom score” value is reported as “Statistically significant improvements”. Further, in experiment [1] (R411 200 mg once daily), the “Asthma control Questionnaire (Total Score), change from baseline” value is −0.29 [2.08] Total Score and the “Morning asthma symptoms, change from baseline” value is −0.34*[1.55]. The “Rescue β2-agonist use (puffs/d), change from baseline” value in experiment [1] (R411 200 mg once daily, N = 117) was −0.36/[3.04] puffs/d. Moreover, in experiment [1] (R411 600 mg once daily), the “Asthma control Questionnaire (Total Score), change from baseline” value is −0.23 [2.00] Total Score and the “Morning asthma symptoms, change from baseline” value was −0.33*[1.57]. In experiment [1] (R411 600 mg once daily, N = 119), the “Rescue β2-agonist use (puffs/d), change from baseline” value is −0.41*/[3.11] puffs/d. Moreover, in experiment [1] (compared to placebo), the “Asthma Control Questionnaire Scores” value was “Improvement” and the “Asthma Quality-of-Life” value was “Improvement”. In addition, the airway inflammation result in experiment [2] was “attenuates”. For the same molecule, at α4/β1 integrin, the “binding of α4/β1 to vascular cell adhesion molecule (VCAM-1)” value is on record as “inhibits” and the “effectiveness against α4/β1 integrin” value is listed as “effective”. At α4/β7 integrin, the “binding of α4/β7 to MadCAM-1” value is reported as “inhibits” and the “effectiveness against α4/β7 integrin” value is “effective”.
